Molecules are shown by their SMILES.

In one data set the target is T1, recombinant human ATase (Homo sapiens, UniProt P16455).
T1 construct: made in house
T1 sequence (P16455 1-207): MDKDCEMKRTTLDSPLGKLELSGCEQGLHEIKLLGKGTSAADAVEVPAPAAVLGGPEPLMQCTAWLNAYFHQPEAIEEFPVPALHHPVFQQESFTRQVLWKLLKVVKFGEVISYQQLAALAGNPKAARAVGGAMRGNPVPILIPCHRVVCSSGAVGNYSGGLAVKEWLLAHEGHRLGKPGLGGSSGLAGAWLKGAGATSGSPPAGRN
As to the kind of experiment: In vitro ATase inactivation assay (incubation with inactivators and ATase assay). The format is biochemical. The settings on record: recombinant human ATase, standard conditions. Here is the method: The cDNA cloning and overexpression of the human ATase has been reported previously^23. Purification of the recombinant proteins was achieved either by affinity chromatography through a DNA-cellulose column as described by Wilkinson et al.,^25, 26 or by DEAE-cellulose ion-exchange chromatography. For the latter, the ATase protein was partially purified by ammonium sulphate precipitation (30-60%) and dialysed against 10 mM Tris-HCl pH 7.5, 1 mM DTT, 2 mM EDTA, 10% glycerol, before loading on a DEAE-cellulose column. The ATase was then eluted with a 0-0.1 M NaCl gradient.
Compounds to be tested were dissolved in DMSO to a final concentration of 10 mM and diluted just before use in buffer I containing 1 mg/ml bovine serum albumin (IBSA). Recombinant ATase was diluted in IBSA and titrated in order that the reaction be conducted under ATase, and not substrate, limiting conditions. […] Following acid hydrolysis of the DNA as previously described^21 the [^3 H]-methylated protein was recovered and quantitated by liquid scintillation counting. Samples were typically assayed in duplicate and experiments repeated several times. I50 is the concentration of inactivator required to produce a 50% reduction in ATase activity.

In data set [1] the test system is Chinese Hamster V79 cells. As to the kind of experiment: Sensitivity of mammalian cells to the inactivators alone: V79 cells. Format: cell-based. Here is the method: (§1) In order to assess the effects on cell growth alone, Xeroderma pigmentosum cells and Chinese Hamster V79 cells were exposed to increasing concentrations (up to 600 μM) of selected inactivators for 2 h at 37°. In some cases, the inactivators were allowed to undergo hydrolysis at 37° C. for 20 hours and then added to Raji cells in order to assess the extent to which the decomposition products of the agents might inhibit cell growth. After 6 days the extent of cell growth was determined as described above.

Experiment in data set [2]: as above
The format is cell-based, Chinese hamster. The settings on record: hamster, v79 cells; FIG. 5; read-out: growth inhibitory dose in V79 cells relative to I50 dose. As for the experimental part: as §1

Data set [3] in a line: Sensitivity of mammalian cells to the inactivators alone: XP cells. Format: cell-based, human. The settings on record: human, xp cells; FIG. 6; read-out: dose required for growth inhibition relative to that required for ATase inactivation. As for the experimental part: as §1
The subject of data set [4] is Xeroderma pigmentosum cells. The data set is described as above. The format is cell-based, human. The settings on record: inactivator alone (FIG. 6). Here is the method:
as §1

The subject of the next data set is ATase. Description: Inactivation of ATase in mammalian cells, summary over human, rat and Chinese hamster cell lines. Format: cell-based. The following applies: Table 5. As for the experimental part:
Mammalian cells were cultured under standard conditions. For example, Raji (a human lymphoblastoid cell line from a Burkitt's lymphoma) cells were grown in suspension culture in RPMI medium supplemented with 10% horse serum. […]
Cells were diluted to 10^6 /ml in culture medium containing either the appropriate concentration of inactivator or an equivalent volume of vehicle (DMSO). […] ATase activity was determined as described above, in duplicate sonicated cell extracts and expressed as the, percentage activity remaining based on that present in the untreated controls (for example 350-450 fm/mg in Raji cells).

In the case of `Nc1nc(OCc2ccco2)c2nc[nH]c2n1` [B.4203, 0^6 -furfurylguanine], the “ATase inactivation in vitro, result in words” value on recombinant human ATase was “not as effective as BeG”. Besides, in data set [1] (FIGS. 5 & 6), the “toxic concentration in V79 cells relative to concentration sensitizing to BCNU” value is recorded as “at least 100 times”. The “dose producing some growth inhibition of V79 cells” value in data set [1] (inactivator alone, 2 h (FIG. 5)) was greater than 100 µM. Also, the “growth inhibition / toxicity to V79 cells, in words” value in data set [1] (inactivator alone, up to 600 μM) is recorded as “toxic”. Moreover, the selectivity ratio in data set [2] and in data set [3] was no less than 100 each time. Besides, the “growth inhibition / toxicity to XP cells, in words” value in data set [4] was “toxic”. Further, the “effectiveness relative to BeG in the cell lines used” value with ATase is “up to 7 times”.

The values above are taken from patent US6043228A, “O^6 -substituted guanine derivatives, a process for their preparation and their use in treating tumor cells” (Cancer Research Campaign Technology Limited, priority 1993, dated 2000).
